Assay results published in patent US9981972B2, “N-hydroxy bicyclic hydantoin carbamates as tools for identification of serine hydrolase targets” (ABIDE THERAPEUTICS, INC., priority 2014, dated 2018).
Entries after “also recorded” stand apart in the source; their conditions may differ.

How the values were obtained:
Type in all cases: biochemical
[1] = biological target: T1, LYPLA1 (Mus musculus, UniProt P97823); test: Gel-based competitive ABPP in vitro, mouse brain membrane proteome; details: for inhibition at 0.1 µM: 0.1 μM compound, read-out: LYPLA1 % INH 0.1 μM; for inhibition at 0.1 µM / inhibition at 1 µM / inhibition at 10 µM / inhibition at 100 µM: 30 min, one replicate; for inhibition at 1 µM: 1 μM compound, read-out: LYPLA1 % INH 1 μM; for inhibition at 10 µM: 10 μM compound, read-out: LYPLA1 % INH 10 μM; for inhibition at 100 µM: 100 μM compound, read-out: LYPLA1 % INH 100 μM; for LYPLA1 in vitro enzyme activity, % @ 20 μM: mouse brain (mem) proteome
T1 construct: a complex proteome endogenously expressing LYPLA1/2 was incubated with test compound; from tissue; host or cells: mouse brain, membrane fraction
Procedure: (§1) Assay Overview: The purpose of this assay was to determine whether test compounds can inhibit LYPLA1 and LYPLA2 in a complex proteomic lysate and to assess anti-target inhibition using a competitive activity-based proteomic profiling (ABPP) assay. In this assay, a complex proteome endogenously expressing LYPLA1/2 was incubated with test compound followed by reaction with a rhodamine-conjugated fluorophosphonate (FP-Rh) serine-hydrolase specific activity-based probe. The reaction products were separated by SDS-PAGE and visualized in-gel using a flatbed fluorescence scanner. The percentage activity remaining was determined by measuring the integrated optical density of the bands. […] Percent inhibition was calculated relative to a DMSO (no compound) control.
(§2) Protocol Summary: Mouse brain membrane proteome (50 μL reaction volume, 1 mg/mL in DPBS) was treated with 0.1-100 μM test compound (1 μL of a 50× stock in DMSO) for 30 minutes at 37° C. FP-Rh (1 μL of 50× stock in DMSO, Thermo #88318) was added to a final concentration of 2 μM. The reactions were incubated for 30 minutes at 25° C., quenched with 16 μL 4×SDS-PAGE loading buffer (reducing), separated by SDS-PAGE and visualized by in-gel fluorescent scanning. The percentage activity remaining was determined by measuring the integrated optical density of the bands relative to a DMSO-only (no compound) control. Assay Cutoff: Compounds with ≥50% inhibition of targets at 1 μM test compound concentration were considered active.
(§3) N-Hydroxy bicyclic hydantoin carbamates (Compounds 1-20) listed in Table 1 were subjected to gel-based competitive ABPP screening to assess SH reactivity against more than 20 FP-sensitive SHs visible by 1D SDS-PAGE separation and fluorescent detection in the mouse brain proteome (see FIG. 1). […] Compound treatment ([…], 30 minutes) was followed by labeling with SH-specific ABPP probe FP-Rh (2 μM, 30 minutes), 1D-SDS-PAGE, and in-gel fluorescent visualization of FP-labeled proteins. Assignment of LYPLA1/2 bands was based on correlation of molecular weights, expression and inhibition profiles with LC-MS/MS data and recombinant enzyme expression. Proteins were listed as anti-targets if at least 50% inhibition was observed as quantified relative to the DMSO control.
(§4) Compounds 1-20 were subjected to gel-based competitive ABPP profiling to assess potency and selectivity against several dozen FP-sensitive SHs in the mouse brain membrane proteome, which endogenously expresses LYPLA1 and LYPLA2, as well a diversity of potential SH anti-targets. Compounds were tested at 100 μM, 10 μM, 1 μM, and/or 0.1 μM compound concentration.

[2] = biological target: T2, LYPLA2 (Mus musculus, UniProt Q9WTL7); test: as above; details: for inhibition at 0.1 µM: 0.1 μM compound, read-out: LYPLA2 % INH 0.1 μM; for inhibition at 0.1 µM / inhibition at 1 µM / inhibition at 10 µM / inhibition at 100 µM: 30 min, one replicate; for inhibition at 1 µM: 1 μM compound, read-out: LYPLA2 % INH 1 μM; for inhibition at 10 µM: 10 μM compound, read-out: LYPLA2 % INH 10 μM; for inhibition at 100 µM: 100 μM compound, read-out: LYPLA2 % INH 100 μM; for LYPLA2 in vitro enzyme activity, % @ 20 μM: mouse brain (mem) proteome
T2 construct: a complex proteome endogenously expressing LYPLA1/2 was incubated with test compound; from tissue; host or cells: mouse brain, membrane fraction
Procedure: as §1, §2, §3, §4

[3] = tested on: FP-sensitive SHs in the mouse brain membrane proteome; test: Gel-based competitive ABPP in vitro, mouse brain membrane proteome, anti-targets; details: for Anti-target(s) 0.1 μM: SHs with at least 50% inhibition at 0.1 μM compound; for Anti-target(s) 1 μM: SHs with at least 50% inhibition at 1 μM compound; for Anti-target(s) 10 μM: SHs with at least 50% inhibition at 10 μM compound; for Anti-target(s) 100 μM: SHs with at least 50% inhibition at 100 μM compound
Procedure: as §1, §2, §3, §4

[4] = biological target: T3, ABHD4 (Homo sapiens, UniProt Q8TB40); test: Gel-based competitive ABPP, recombinant enzyme in transfected HEK293T cell lysates; design: myc-his; expressed in transfected cells; host or cells: HEK293T, transient transfection, pcDNA3.1/myc-his; lysate used in vitro; details: recombinant, combined HEK293T lysates, gel-based ABPP
T3 sequence (Q8TB40 1-342): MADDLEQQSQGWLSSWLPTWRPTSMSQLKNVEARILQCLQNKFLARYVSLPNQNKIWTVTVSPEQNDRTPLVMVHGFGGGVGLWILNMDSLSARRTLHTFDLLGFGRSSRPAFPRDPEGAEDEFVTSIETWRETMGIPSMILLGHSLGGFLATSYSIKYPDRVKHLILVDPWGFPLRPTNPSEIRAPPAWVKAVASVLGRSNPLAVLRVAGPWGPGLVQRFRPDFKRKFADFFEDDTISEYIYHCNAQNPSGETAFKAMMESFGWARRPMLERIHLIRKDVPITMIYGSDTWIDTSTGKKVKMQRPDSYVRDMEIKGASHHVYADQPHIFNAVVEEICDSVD
Procedure: HEK293T cells were seeded at 2×10^5 per well on 6 well plates and grown for 48 h. They were then transfected with mABHD3 (pCMV-Sport6), hABHD4 (pcDNA3.1/myc-his), hPPT1 (pCMV6-XL5), or hPPT1 S115A (pCMV6-XL5), by incubating 0.5 μg of DNA with 3 μL of PEI MAX (1 mg/mL, Polysciences, Inc) in serum-free DMEM for 30 min, then adding them to cells. After 48 h cells were either treated with compound in situ, as described above, or harvested for in vitro studies. The […] PPT1 mutation was introduced using QuikChange II Site Directed Mutagenesis Kit (Agilent) with the following primers: […]
Human ABHD3 and ABHD4 were recombinantly expressed by transient transfection in HEK293T cells, and the cell lysates were combined to provide a convenient assay for monitor inhibition of both enzymes by gel-based ABPP (see FIG. 8A). […]

[5] = biological target: T4, ABHD6 (Mus musculus, UniProt Q8R2Y0); test: Gel-based competitive ABPP in vitro, mouse brain membrane proteome; details: for ABHD6 in vitro enzyme activity, % @ 20 μM: mouse brain (mem) proteome
T4 construct: from tissue; host or cells: mouse brain, membrane fraction
T4 sequence (Q8R2Y0 1-336): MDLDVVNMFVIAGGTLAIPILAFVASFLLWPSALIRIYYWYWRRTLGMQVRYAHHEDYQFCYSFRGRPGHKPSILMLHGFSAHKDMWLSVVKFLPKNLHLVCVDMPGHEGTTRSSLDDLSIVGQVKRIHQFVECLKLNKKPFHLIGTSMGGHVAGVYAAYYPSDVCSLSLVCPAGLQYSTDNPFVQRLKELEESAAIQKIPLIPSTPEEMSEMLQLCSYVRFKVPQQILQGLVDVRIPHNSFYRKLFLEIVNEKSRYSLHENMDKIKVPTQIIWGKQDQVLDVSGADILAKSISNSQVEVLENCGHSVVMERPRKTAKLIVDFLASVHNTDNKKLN
Procedure: as §1, §2
Assay Overview: The purpose of this assay was to determine IC50 values of powder samples of test compounds for enzyme of interest activity, and anti-targets in a complex proteomic lysate using a gel-based competitive ABPP assay. In this assay, a complex proteome was incubated with test compound followed by reaction with FP-Rh and SDS-PAGE analysis as described above.
Protocol Summary: Soluble HeLa cell proteome (50 μL reaction volume, 1 mg/mL in DPBS) or mouse brain membrane proteome (50 μL reaction volume, 1 mg/mL in DPBS) was treated with varying concentrations of test compound (1 μL of a 50× stock in DMSO) for 30 minutes at 37° C. FP-Rh (1 μL of 50× stock in DMSO) was added to a final concentration of 2 μM. The reaction was incubated for 30 minutes at 25° C., quenched with 16 μL 4×SDS-PAGE loading buffer (reducing), separated by SDS-PAGE and visualized by in-gel fluorescent scanning. The percentage activity remaining was determined by measuring the integrated optical density of the enzymes of interest, and anti-target bands relative to a DMSO-only (no compound) control. IC50 values were determined from dose-response curves from three replicates at each inhibitor concentration: 1, 10, 100, 1000, 10000 nM and 0.01, 0.1, 1, 10, 100, 1000, 10000, 50000, and 100000 nM.

T2 sequence (Q9WTL7 whole entry): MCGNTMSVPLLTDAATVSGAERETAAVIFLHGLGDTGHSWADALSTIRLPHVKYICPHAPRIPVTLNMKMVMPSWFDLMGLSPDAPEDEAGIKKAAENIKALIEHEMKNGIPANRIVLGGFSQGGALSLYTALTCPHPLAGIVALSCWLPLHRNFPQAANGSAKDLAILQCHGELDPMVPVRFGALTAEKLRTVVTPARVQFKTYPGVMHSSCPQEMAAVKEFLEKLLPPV
T1 sequence (P97823 whole entry): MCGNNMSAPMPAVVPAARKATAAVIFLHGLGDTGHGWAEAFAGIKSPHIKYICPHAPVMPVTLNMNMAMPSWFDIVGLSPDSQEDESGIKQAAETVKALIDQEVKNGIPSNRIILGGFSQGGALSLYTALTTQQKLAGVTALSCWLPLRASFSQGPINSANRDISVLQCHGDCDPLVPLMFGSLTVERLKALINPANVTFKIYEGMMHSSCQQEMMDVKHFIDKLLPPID

| inhibition at 0.1 µM [1] | inhibition at 1 µM [1] | inhibition at 10 µM [1] | inhibition at 100 µM [1] | inhibition at 0.1 µM [2] | inhibition at 1 µM [2] | inhibition at 10 µM [2] | inhibition at 100 µM [2] | LYPLA1 in vitro enzyme activity, % @ 20 μM [1] | LYPLA2 in vitro enzyme activity, % @ 20 μM [2] | ABHD6 in vitro enzyme activity, % @ 20 μM [5] | potency and selectivity for ABHD6, concentration-dependent profiling ([5]; mouse brain membrane SHs, FIG. 7B) | SMILES | Anti-target(s) 0.1 μM [3] | Anti-target(s) 1 μM [3] | Anti-target(s) 10 μM [3] | Anti-target(s) 100 μM [3] | preference ABHD4 over ABHD3 [4] |
| --- | --- | --- | --- | --- | --- | --- | --- | --- | --- | --- | --- | --- | --- | --- | --- | --- | --- |
| 0% | 10% | 75% | 90% | 0% | 10% | 75% | 90% |  |  |  |  | O=C(ON1C(=O)C2CN(Cc3ccc(Br)cc3)CCN2C1=O)N1CCC(CCc2ccc(Cl)cc2)CC1 (centres unmarked) [Compound 13, 7-(4-bromobenzyl)-1,3-dioxohexahydroimidazo[1,5-a]pyrazin-2(3H)-yl 4-(4-chlorophenethyl)piperidine-1-carboxylate] | ABHD6 | FAAH,; also recorded: ABHD4,; also recorded: ABHD6 | FAAH,; also recorded: ABHD4,; also recorded: ABHD6 | FAAH,; also recorded: ABHD4,; also recorded: MAGL,; also recorded: ABHD6 | preferentially inhibited ABHD4 over ABHD3 |
| 0% | 0% | 10% | 50% | 0% | 0% | 0% | 25% |  |  |  |  | CC(C)(C)OC(=O)N1CCN2C(=O)N(OC(=O)N3CCC(C(=O)Nc4ccccc4)CC3)C(=O)C2C1 (centres unmarked) [Compound 19, tert-butyl 1,3-dioxo-2-(4-(phenylcarbamoyl)piperidine-1-carbonyloxy)hexahydroimidazo[1,5-a]pyrazine-7(1H)-carboxylate] | ABHD6 | ABHD6 | ABHD6 | FAAH,; also recorded: ABHD6 |  |
| 0% | 10% | 100% | 100% | 0% | 10% | 75% | 100% |  |  |  |  | CCN(C(=O)C1CCN(C(=O)ON2C(=O)C3CN(C(=O)OC(C)(C)C)CCN3C2=O)CC1)c1ccccc1 (centres unmarked) [Compound 20, tert-butyl 2-(4-(ethyl(phenyl)carbamoyl)piperidine-1-carbonyloxy)-1,3-dioxohexahydroimidazo[1,5-a]pyrazine-7(1H)-carboxylate] | ABHD6 | ABHD6 | ABHD6 | ABHD6 |  |
|  |  |  |  |  |  |  |  | 0% @ | 0% @ | 100% @ |  | COc1ccc(N2CCN(C(=O)ON3C(=O)C4CN(C(=O)OC(C)(C)C)CCN4C3=O)CC2)cc1 (centres unmarked) [Compound 21, tert-butyl 2-((4-(4-methoxyphenyl)piperazine-1-carbonyl)oxy)-1,3-dioxohexahydroimidazo[1,5-a]pyrazine-7(1H)-carboxylate] |  |  |  |  |  |
|  |  |  |  |  |  |  |  | 0% @ | 0% @ | 100% @ |  | COc1ccc(N2CCN(C(=O)ON3C(=O)C4CN(C)CCN4C3=O)CC2)cc1 (centres unmarked) [Compound 23, 7-methyl-1,3-dioxohexahydroimidazo[1,5-a]pyrazin-2(3H)-yl 4-(4-methoxyphenyl)piperazine-1-carboxylate] |  |  |  |  |  |
|  |  |  |  |  |  |  |  |  |  |  | good potency and selectivity | COc1ccc(N2CCN(C(=O)ON3C(=O)NC(C(C)C)C3=O)CC2)cc1 (centres unmarked) [MJN193, 4-isopropyl-2,5-dioxoimidazolidin-1-yl 4-(4-methoxyphenyl)piperazine-1-carboxylate] |  |  |  |  |  |
